Key:
methanogens in soils = experiment: Methane concentration in headspace of soils at fresh water conditions treated with Co-M structural analogues; conditions: for Methane concentration in headspace: 20 mg/kg in soils at fresh water conditions, cultivation for 50 days; for methane emission amount reduced compared to the control: 20 mg/kg in soils, 50 days, vs soils without sample treatment
Text: (§1) It is known that coenzyme M (hereinbelow, “Co-M”), which is produced during the intercellular reactions of methanogens, is an inhibitor for specifically inhibiting the methanogenic activity of methanogens. Accordingly, ethephon was selected in the present invention as a structural analogue of Co-M. Specifically, CES (2-chloroethane sulfonate), BES (2-bromoethane sulfonate), and MES (2-mercaptoethane sulfonate) that are known as a structural analogue of Co-M, and ethephon (IUPAC name: 2-chloroethyl phosphonic acid) selected as a structural analogue of Co-M in the present invention were applied, each at the same concentration (20 mg/kg), to soils at fresh water conditions. Then, along with cultivation for 50 days, methane concentration in headspace and activity of the methanogens in soils were measured.
(§2) First, methane concentration in headspace was measured and emission amount of methane gas was analyzed.

[1] = tested on: methanogens in soils (mcrA, methyl coenzyme-M reductase gene); experiment: Activity of methanogens in soils (mcrA gene copy number); conditions: for Activity of methanogens (mcrA gene copy no./g soil): 20 mg/kg in soils at fresh water conditions, cultivation for 50 days; for mcrA gene copy number reduced compared to the control: 20 mg/kg in soils, 50 days, vs control
Text: as §1, §2

[2] = tested on: methanogens in soils of flooded rice paddies; experiment: Methane emission from soils of flooded rice paddies during rice cultivation after fertilizer application; assay type: in vivo; conditions: for Methane emission: applied before rice transplanting
Method: To acetone in which ethephon has been dissolved at various concentrations based on the blending ratio described in the following Table 4, cellulose acetate was added and dissolved therein. After mixing the resultant with gypsum and drying the mixture till to have evaporation of acetone, the mixture was crushed to have particle size of not more than 2 mm. Accordingly, fertilizer capable of reducing methane emission amount by delaying the ethephon degradation in soils was prepared. Since acetone is highly volatile so that it can completely evaporate during the process of mixing and drying ethephon, cellulose acetate, and gypsum, it is used in minimum amount depending on the total amount of mixture. Meanwhile, the ethephon treatment amount of 2 kg/ha, 6 kg/ha, and 10 kg/ha means that ethephon is applied at concentration of 1 mg/kg, 3 mg/kg, and 5 mg/kg (ppm), respectively, in soils.
(§3) Fertilizer composition prepared by mixing ethephon, cellulose acetate, and gypsum at various mixing ratios was applied in an amount of 2 ton/ha to soils of flooded rice paddies before rice transplanting. Then, emission amount of methane during the subsequent process of cultivating rice, effect of inhibiting methane emission, and yield property of rice were analyzed.

rice = experiment: Yield property of rice after fertilizer application; assay type: in vivo, Oryza sativa
Method: as §3

[3] = ethephon 2 kg/ha with gypsum 1940 kg/ha and CA 60 kg/ha
[4] = ethephon 6 kg/ha with gypsum 1940 kg/ha and CA 60 kg/ha
[5] = ethephon 10 kg/ha with gypsum 1940 kg/ha and CA 60 kg/ha

O=P(O)(O)CCCl [Ethephon, 2-chloroethyl phosphonic acid]
Methane concentration in headspace (methanogens in soils): 4.4 mg/L | methane emission amount reduced compared to the control (methanogens in soils): ~56% | Activity of methanogens (mcrA gene copy no./g soil) [1]: 1.35 × 10^6 mcrA gene copy no./g soil | mcrA gene copy number reduced compared to the control [1]: ~55% | Effect of inhibiting methanogenesis [2, 3]: 50.5% | Methane emission [2, 3]: 36.9 kg CH4 ha^−1 | Effect of inhibiting methanogenesis [2, 4]: 78.6% | Methane emission [2, 4]: 15.9 kg CH4 ha^−1 | Effect of inhibiting methanogenesis [2, 5]: 98.1% | Methane emission [2, 5]: 1.4 kg CH4 ha^−1 | Effect of inhibiting methanogenesis ([2]; ethephon 10 kg/ha with gypsum 1940 kg/ha and CA 60 kg/ha, listed as ethephon): about 98.1% | methane gas emission amount from flooded rice paddies ([2]; fertilizer containing ethephon vs fertilizer not containing any ethephon): significantly lower | Grain yield (rice; [3]): 6331 kg/ha | Straw yield (rice; [3]): 6964 kg/ha | Yield index (rice; [3]): 100 | change in rice yield in relation to the application amount of ethephon (rice; ethephon 2 to 10 kg/ha in fertilizer): no significant change in rice yield | Grain yield (rice; [4]): 6298 kg/ha | Straw yield (rice; [4]): 6928 kg/ha | Yield index (rice; [4]): 99.6 | Grain yield (rice; [5]): 6315 kg/ha | Straw yield (rice; [5]): 6946 kg/ha | Yield index (rice; [5]): 99.9

O=S(=O)([O-])CCBr.[Na+] [BES, 2-bromoethane sulfonate]
Methane concentration in headspace (methanogens in soils): 4.4 mg/L | methane emission amount reduced compared to the control (methanogens in soils): ~56% | Activity of methanogens (mcrA gene copy no./g soil) [1]: 1.65 × 10^6 mcrA gene copy no./g soil | mcrA gene copy number reduced compared to the control [1]: ~45%

O=S(=O)([O-])CCCl.[Na+] [CES, 2-chloroethane sulfonate]
Methane concentration in headspace (methanogens in soils): 5.1 mg/L | methane emission amount reduced compared to the control (methanogens in soils): about 48% | Activity of methanogens (mcrA gene copy no./g soil) [1]: 1.86 × 10^6 mcrA gene copy no./g soil | mcrA gene copy number reduced compared to the control [1]: about 39%

Reference: patent US12630765B2, “Fertilizer composition for reducing methane gas emission comprising ethephon and uses thereof” (priority 2020, dated 2026)
